The text below walks through data of US11299457B2, “Chemical compounds” (GlaxoSmithKline Intellectual Property (No. 2) Limited, priority 2012, dated 2022).

The test system of experiment [1] is castrated male rat (ORX): levator ani muscle and prostate. Kind of experiment: Castrated male rat model (ORX rat). Format: in vivo. The conditions noted are these: for prostate sparing: defined as at least a 2:1 ratio of levator ani ED50 to prostate ED50; for levator ani hypertrophy: favorable = 30% or greater increase in levator ani weight vs vehicle-treated castrates, dosed orally at up to 10 mg/kg/day. An excerpt:
Castrated Male Rat Model (ORX Rat)
The activity of the compounds of the present invention as modulators of the androgen receptor was investigated using a castrated male rat model (ORX) as described in C. D. Kockakian, Pharmac. Therap. B 1(2), 149-177 (1975); C. Tobin and Y. Joubert, Developmental Biology 146, 131-138 (1991); J. Antonio, J. D. Wilson and F. W. George, J Appl. Physiol. 87(6) 2016-2019 (1999)) the disclosures of which herein are included by reference.
Androgens have been identified as playing important roles in the maintenance and growth of many tissues in both animals and humans. Muscles, like the levator ani and bulbocavernosus, and sexual accessory organs, such as the prostate glands and seminal vesicles have high expression levels of the androgen receptor and are known to respond quickly to exogenous androgen addition or androgen deprivation through testicular ablation. Castration produces dramatic atrophy of muscle and sexual accessory organs; whereas the administration of exogenous androgens to the castrated animal results in effective hypertrophy of these muscles and sexual accessory organs. Although the levator ani muscle, also known as the dorsal bulbocavernosus, is not ‘true skeletal muscle’ and definitely sex-linked, it is reasonable to use this muscle to screen muscle anabolic activities of test compounds because of its androgen responsiveness and simplicity of removal.
Male Sprague-Dawley rats weighing 160-180 grams were used in the assay. The rats were singly caged upon receiving and throughout the study. Bilateral orchidectomies were performed in sterilized surgical conditions under isoflurane anesthesia. An anteroposterior incision was made in the scrotum. The testicles were exteriorized and the spermatic artery and vas deferens were ligated with 4.0 silk 0.5 cm proximal to the ligation site. The testicles then were removed by a surgical scissors distal to the ligation sites. The tissue stumps were returned to the scrotum, the scrotum and overlying skin were closed by a surgical stapler. The Sham-ORX rats underwent all procedures except ligation and scissors cutting. The rats were assigned randomly into study groups 7-10 days post surgery based on the body weight.
Dihydrotestosterone (DHT) and the standard SARM, S-22, (J. Pharma. Exper. Thera. Vol 315, p. 230) were used as a positive control (1-10 mg/kg s.c. for DHT and 0.1 to 3 mg/kg p.o. for S-22). Compounds of the current invention were administered subcutaneously or orally for 4-28 days. Alternatively, some compounds of the current invention were administered subcutaneously or orally for 7-49 days. The rats were weighed daily and doses were adjusted accordingly. The general well being of the animal was monitored throughout the course of the study.
At the end of the study, the rats were euthanized in a CO2 chamber. The ventral prostate glands (VP), seminal vesicles (SV), levator ani muscle (LA) and bulbocavernosus (BC) were carefully dissected. The tissues were blotted dry; the weights were recorded, and then saved for histological and molecular analysis. The VP and SV weights serve as androgenic indicators and LA and BC as anabolic indicators. The ratio of anabolic to androgenic activities was used to evaluate the test compounds. Serum luteinizing hormone (LH), follicle stimulating hormone (FSH) and other potential serum markers of anabolic activities were also analyzed.
In general, preferred compounds show levator ani hypertrophy and very little prostate stimulation.
The compounds shown in Examples 9, 20, 26, 27, 33, 51, 52, and 53 were tested in the castrated male rate model essentially as described above. Test compounds were employed in free or salt form. […] Prostate sparing was defined as at least a 2:1 ratio of levator ani ED50 to prostate ED50. The ED50 is defined as 50% of the maximum response above the vehicle treated castrate level. […]

The target of experiment [2] is androgen receptor (MBP-hAR-LBD, rat androgen ligand binding domain) (Rattus norvegicus (Rat), UniProt P15207). Kind of experiment: Androgen receptor fluorescence polarization assay. The conditions noted are these: maximum of curve fit; max/min compared to absence of compound and 10^-5 M control compound. How it is done: The androgen receptor fluorescence polarization assay is used to investigate the interaction of the compounds with the androgen receptor.
Compounds are added to the 384 well black low-volume plates to a final volume of 0.1 μL. DTT and DMSO are added to the chilled assay buffer just before beginning assay. Sufficient Fluormone AL Red and AR-LBD are defrosted on ice and added to the chilled buffer in a glass tube to give a final concentration of 1 nM and 100 nM, (for current batch) respectively. A volume of 10 μL of the assay mix is added to compound plates with a multidrop. […] The plates are counted in a Discovery Analyst with suitable 535 nm excitation and 590 nm emission interference filters (Dichroic 561 nM). […] Test compounds are dissolved and diluted in DMSO. Compounds are assayed in singlicate, a four parameter curve fit of the following form being applied
[formula] where a is the minimum, b is the Hill slope, c is the IC50 and d is the maximum.
Data is presented as the mean pIC50 with the standard error of the mean of n experiments.

androgen receptor (MBP-hAR-LBD, rat androgen ligand binding domain), sequence (P15207 651-882): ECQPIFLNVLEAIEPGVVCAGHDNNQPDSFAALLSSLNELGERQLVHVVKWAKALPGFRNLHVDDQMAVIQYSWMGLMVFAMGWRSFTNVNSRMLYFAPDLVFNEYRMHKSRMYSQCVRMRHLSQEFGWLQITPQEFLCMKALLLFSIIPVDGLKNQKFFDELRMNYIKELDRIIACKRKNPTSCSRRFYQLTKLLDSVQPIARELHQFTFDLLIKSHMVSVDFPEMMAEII

On to `Cc1cc2c(C(F)(F)F)c(C#N)ccc2n1C(C)CS(C)(=O)=O` (stereo not shown) [Example 9, 2-Methyl-1-(1-(methylsulfonyl)propan-2-yl)-4-(trifluoromethyl)-1H-indole-5-carbonitrile], for which, in experiment [1], the prostate sparing entry is reported as “spared the prostate” and the levator ani hypertrophy result is “favorable levator ani hypertrophy”.

In the case of `C[C@H](n1ccc2c(C(F)(F)F)c(C#N)ccc21)C(C)(C)O` [Example 21, (S)-1-(3-Hydroxy-3-methylbutan-2-yl)-4-(trifluoromethyl)-1H-indole-5-carbonitrile], the “% Max” value in experiment [2] was 100%. As to `CC(CS(C)(=O)=O)n1ccc2c(C(F)(F)F)c(C#N)ccc21` (stereo not shown) [Example 26, 1-(1-(Methylsulfonyl)propan-2-yl)-4-(trifluoromethyl)-1H-indole-5-carbonitrile], in experiment [1], the prostate sparing entry was “spared the prostate” and the levator ani hypertrophy result is “favorable levator ani hypertrophy”. The corresponding values for `C[C@H](CS(C)(=O)=O)n1ccc2c(C(F)(F)F)c(C#N)ccc21` [Example 27, (R)-1-(1-(Methylsulfonyl)propan-2-yl)-4-(trifluoromethyl)-1H-indole-5-carbonitrile] are “spared the prostate” and “favorable levator ani hypertrophy”. The corresponding values for `CC[C@H](c1cncc(C#N)c1)n1ccc2c(C#N)c(C#N)ccc21` [Example 51, (R)-1-(1-(5-Cyanopyridin-3-yl)propyl)-1H-indole-4,5-dicarbonitrile] are “spared the prostate” and “favorable levator ani hypertrophy”. On the same counts, the results for `C[C@@H](n1ccc2c(Cl)c(C#N)ccc21)[C@](C)(O)C(F)(F)F` [Example 52, 4-Chloro-1-((2R,3S)-4,4,4-trifluoro-3-hydroxy-3-methylbutan-2-yl)-1H-indole-5-carbonitrile] are “spared the prostate” and “favorable levator ani hypertrophy”. Consider `C[C@@H](n1ccc2c(C(F)(F)F)c(C#N)ccc21)[C@](C)(O)C(F)(F)F` [Example 53, 1-((2R,3S)-4,4,4-Trifluoro-3-hydroxy-3-methylbutan-2-yl)-4-(trifluoromethyl)-1H-indole-5-carbonitrile], for which, in experiment [1], the prostate sparing entry was “spared the prostate” and the levator ani hypertrophy result is on record as “favorable levator ani hypertrophy”.
